Experimental data as given in PMC7291858, “An Enhanced Variant Designed From DLP4 Cationic Peptide Against Staphylococcus aureus CVCC 546” (Frontiers in Microbiology, 2020).
Peptide text beside a SMILES is read from it.

Tested on: S. aureus ATCC 43300
Assay type: cell-based, Staphylococcus aureus
Settings: microtiter, serial 2-fold dilutions, 37°C, 16∼20 h, triplicate; – = no activity
Description: The minimal inhibitory concentration (MIC) was evaluated by a microtiter plate assay ([Wiegand et al., 2008]). Serial 2-fold dilutions of test peptides were placed into a 96-well plate containing identical bacterial inoculum and incubated at 37°C for 16∼20 h. Vancomycin was used as antibiotic control. The MIC value was defined as the lowest peptide concentration where no visible growth occurred. All tests were made in triplicate.

In order of rising “A1 (MIC against S. aureus ATCC 43300)” value:
1. CC[C@H](C)[C@@H]1NC(=O)[C@@H]2CSSC[C@@H](C(=O)N[C@@H](CCCNC(=N)N)C(=O)N[C@@H](CC(N)=O)C(=O)O)NC(=O)[C@H](CC(N)=O)NC(=O)[C@@H]3CSSC[C@H](NC(=O)[C@H](C)NC(=O)[C@H](C)NC(=O)[C@H](Cc4c[nH]cn4)NC(=O)CNC(=O)[C@H](C(C)C)NC(=O)[C@H](CCCCN)NC(=O)[C@H](Cc4ccccc4)NC(=O)[C@@H]4CCCN4C(=O)[C@H](CO)NC(=O)[C@H](CC(C)C)NC(=O)[C@H](CC(C)C)NC(=O)[C@H](CC(=O)O)NC(=O)[C@@H](NC(=O)[C@@H](NC(=O)[C@H](C)N)[C@@H](C)O)CSSC[C@H](NC(=O)[C@H](Cc4c[nH]c5ccccc45)NC(=O)CNC(=O)CNC(=O)[C@H](CCCNC(=N)N)NC(=O)[C@H](CCCCN)NC(=O)CNC(=O)[C@H](CCCNC(=N)N)NC(=O)[C@H](C)NC1=O)C(=O)N[C@@H](CC(=O)O)C(=O)NCC(=O)N[C@@H](CCCNC(=N)N)C(=O)N[C@@H](C)C(=O)N[C@@H](C(C)C)C(=O)N3)C(=O)N[C@@H](C)C(=O)N[C@@H](C)C(=O)N[C@@H](Cc1c[nH]cn1)C(=O)N2 [ID20] (HELM PEPTIDE1{A.T.C.D.L.L.S.P.F.K.V.G.H.A.A.C.A.A.H.C.I.A.R.G.K.R.G.G.W.C.D.G.R.A.V.C.N.C.R.N}$PEPTIDE1,PEPTIDE1,3:R3-30:R3|PEPTIDE1,PEPTIDE1,16:R3-36:R3|PEPTIDE1,PEPTIDE1,20:R3-38:R3$$$V2.0; N-terminus and C-terminus assumed; bridges inferred)  16 µg/mL
2. CC[C@H](C)[C@@H]1NC(=O)[C@@H]2CSSC[C@@H](C(=O)N[C@@H](CCCNC(=N)N)C(=O)N[C@@H](CCCCN)C(=O)O)NC(=O)[C@H](CC(N)=O)NC(=O)[C@@H]3CSSC[C@H](NC(=O)[C@H](C)NC(=O)[C@H](C)NC(=O)[C@H](Cc4c[nH]cn4)NC(=O)CNC(=O)[C@H](C(C)C)NC(=O)[C@H](CCCCN)NC(=O)[C@H](Cc4ccccc4)NC(=O)[C@@H]4CCCN4C(=O)[C@H](CO)NC(=O)[C@H]([C@@H](C)CC)NC(=O)[C@H](CC(C)C)NC(=O)[C@H](CC(=O)O)NC(=O)[C@@H](NC(=O)[C@@H](NC(=O)[C@H](C)N)[C@@H](C)O)CSSC[C@H](NC(=O)[C@H](Cc4c[nH]c5ccccc45)NC(=O)CNC(=O)CNC(=O)[C@H](CCCNC(=N)N)NC(=O)[C@H](CCCCN)NC(=O)CNC(=O)[C@H](CCCNC(=N)N)NC(=O)[C@H](C)NC1=O)C(=O)N[C@@H](CC(=O)O)C(=O)N[C@@H](CCCCN)C(=O)N[C@@H](CCCNC(=N)N)C(=O)N[C@@H](C)C(=O)N[C@@H](C(C)C)C(=O)N3)C(=O)N[C@@H](C)C(=O)N[C@@H](C)C(=O)N[C@@H](Cc1c[nH]cn1)C(=O)N2 [ID5] (HELM PEPTIDE1{A.T.C.D.L.I.S.P.F.K.V.G.H.A.A.C.A.A.H.C.I.A.R.G.K.R.G.G.W.C.D.K.R.A.V.C.N.C.R.K}$PEPTIDE1,PEPTIDE1,3:R3-30:R3|PEPTIDE1,PEPTIDE1,16:R3-36:R3|PEPTIDE1,PEPTIDE1,20:R3-38:R3$$$V2.0; N-terminus and C-terminus assumed; bridges inferred)  16 µg/mL
3. CC[C@H](C)[C@@H]1NC(=O)[C@@H]2CSSC[C@@H](C(=O)N[C@@H](CCCNC(=N)N)C(=O)N[C@@H](CCCCN)C(=O)O)NC(=O)[C@H](CC(N)=O)NC(=O)[C@@H]3CSSC[C@H](NC(=O)[C@H](C)NC(=O)[C@H](C)NC(=O)[C@H](Cc4c[nH]cn4)NC(=O)[C@H](CCCCN)NC(=O)[C@H](C(C)C)NC(=O)[C@H](CCCCN)NC(=O)[C@H](Cc4ccccc4)NC(=O)[C@@H]4CCCN4C(=O)[C@H](CO)NC(=O)[C@H](CC(C)C)NC(=O)[C@H](CC(C)C)NC(=O)[C@H](CC(=O)O)NC(=O)[C@@H](NC(=O)[C@@H](NC(=O)[C@H](C)N)[C@@H](C)O)CSSC[C@H](NC(=O)[C@H](Cc4c[nH]c5ccccc45)NC(=O)CNC(=O)CNC(=O)[C@H](CCCNC(=N)N)NC(=O)[C@H](CCCCN)NC(=O)CNC(=O)[C@H](CCCNC(=N)N)NC(=O)[C@H](C)NC1=O)C(=O)N[C@@H](CC(=O)O)C(=O)N[C@@H](CCCCN)C(=O)N[C@@H](CCCNC(=N)N)C(=O)N[C@@H](C)C(=O)N[C@@H](C(C)C)C(=O)N3)C(=O)N[C@@H](C)C(=O)N[C@@H](C)C(=O)N[C@@H](Cc1c[nH]cn1)C(=O)N2 [ID9] (HELM PEPTIDE1{A.T.C.D.L.L.S.P.F.K.V.K.H.A.A.C.A.A.H.C.I.A.R.G.K.R.G.G.W.C.D.K.R.A.V.C.N.C.R.K}$PEPTIDE1,PEPTIDE1,3:R3-30:R3|PEPTIDE1,PEPTIDE1,16:R3-36:R3|PEPTIDE1,PEPTIDE1,20:R3-38:R3$$$V2.0; N-terminus and C-terminus assumed; bridges inferred)  16 µg/mL
4. CC[C@H](C)[C@@H]1NC(=O)[C@@H]2CSSC[C@@H](C(=O)N[C@@H](CCCNC(=N)N)C(=O)N[C@@H](CCCCN)C(=O)O)NC(=O)[C@H](CC(N)=O)NC(=O)[C@@H]3CSSC[C@H](NC(=O)[C@H](C)NC(=O)[C@H](C)NC(=O)[C@H](Cc4c[nH]cn4)NC(=O)CNC(=O)[C@H](C(C)C)NC(=O)[C@H](CCCCN)NC(=O)[C@H](Cc4ccccc4)NC(=O)[C@@H]4CCCN4C(=O)[C@H](CO)NC(=O)[C@H](CC(C)C)NC(=O)[C@H](CC(C)C)NC(=O)[C@H](CC(=O)O)NC(=O)[C@@H](NC(=O)[C@@H](NC(=O)[C@H](C)N)[C@@H](C)O)CSSC[C@H](NC(=O)[C@H](Cc4c[nH]c5ccccc45)NC(=O)CNC(=O)CNC(=O)[C@H](CCCNC(=N)N)NC(=O)[C@H](CCCCN)NC(=O)CNC(=O)[C@H](CCCNC(=N)N)NC(=O)[C@H](C)NC1=O)C(=O)N[C@@H](CC(N)=O)C(=O)N[C@@H](CCCCN)C(=O)N[C@@H](CCCNC(=N)N)C(=O)N[C@@H](C)C(=O)N[C@@H](C(C)C)C(=O)N3)C(=O)N[C@@H](C)C(=O)N[C@@H](C)C(=O)N[C@@H](Cc1c[nH]cn1)C(=O)N2 [ID10] (HELM PEPTIDE1{A.T.C.D.L.L.S.P.F.K.V.G.H.A.A.C.A.A.H.C.I.A.R.G.K.R.G.G.W.C.N.K.R.A.V.C.N.C.R.K}$PEPTIDE1,PEPTIDE1,3:R3-30:R3|PEPTIDE1,PEPTIDE1,16:R3-36:R3|PEPTIDE1,PEPTIDE1,20:R3-38:R3$$$V2.0; N-terminus and C-terminus assumed; bridges inferred)  16 µg/mL
5. CC[C@H](C)[C@@H]1NC(=O)[C@@H]2CSSC[C@@H](C(=O)N[C@@H](CCCNC(=N)N)C(=O)N[C@@H](CCCCN)C(=O)O)NC(=O)[C@H](CC(N)=O)NC(=O)[C@@H]3CSSC[C@H](NC(=O)[C@H](C)NC(=O)[C@H](C)NC(=O)[C@H](Cc4c[nH]cn4)NC(=O)CNC(=O)[C@H](C(C)C)NC(=O)[C@H](CCCCN)NC(=O)[C@H](Cc4ccccc4)NC(=O)[C@H](CCCCN)NC(=O)[C@H](CO)NC(=O)[C@H](CC(C)C)NC(=O)[C@H](CC(C)C)NC(=O)[C@H](CC(=O)O)NC(=O)[C@@H](NC(=O)[C@@H](NC(=O)[C@H](C)N)[C@@H](C)O)CSSC[C@H](NC(=O)[C@H](Cc4c[nH]c5ccccc45)NC(=O)CNC(=O)CNC(=O)[C@H](CCCNC(=N)N)NC(=O)[C@H](CCCCN)NC(=O)CNC(=O)[C@H](CCCNC(=N)N)NC(=O)[C@H](C)NC1=O)C(=O)N[C@@H](CC(=O)O)C(=O)N[C@@H](CCCCN)C(=O)N[C@@H](CCCNC(=N)N)C(=O)N[C@@H](C)C(=O)N[C@@H](C(C)C)C(=O)N3)C(=O)N[C@@H](C)C(=O)N[C@@H](C)C(=O)N[C@@H](Cc1c[nH]cn1)C(=O)N2 [ID8] (HELM PEPTIDE1{A.T.C.D.L.L.S.K.F.K.V.G.H.A.A.C.A.A.H.C.I.A.R.G.K.R.G.G.W.C.D.K.R.A.V.C.N.C.R.K}$PEPTIDE1,PEPTIDE1,3:R3-30:R3|PEPTIDE1,PEPTIDE1,16:R3-36:R3|PEPTIDE1,PEPTIDE1,20:R3-38:R3$$$V2.0; N-terminus and C-terminus assumed; bridges inferred)  32 µg/mL
6. CC[C@H](C)[C@@H]1NC(=O)[C@@H]2CSSC[C@@H](C(=O)N[C@@H](CCCNC(=N)N)C(=O)N[C@@H](CCCCN)C(=O)O)NC(=O)[C@H](CC(N)=O)NC(=O)[C@@H]3CSSC[C@H](NC(=O)[C@H](C)NC(=O)[C@H](C)NC(=O)[C@H](Cc4c[nH]cn4)NC(=O)CNC(=O)[C@H](C(C)C)NC(=O)[C@H](CCCCN)NC(=O)[C@H](Cc4ccccc4)NC(=O)[C@@H]4CCCN4C(=O)[C@H](CO)NC(=O)[C@H](CC(C)C)NC(=O)[C@H]([C@@H](C)CC)NC(=O)[C@H](CC(=O)O)NC(=O)[C@@H](NC(=O)[C@@H](NC(=O)[C@H](C)N)[C@@H](C)O)CSSC[C@H](NC(=O)[C@H](Cc4c[nH]c5ccccc45)NC(=O)CNC(=O)CNC(=O)[C@H](CCCNC(=N)N)NC(=O)[C@H](CCCCN)NC(=O)CNC(=O)[C@H](CCCNC(=N)N)NC(=O)[C@H](C)NC1=O)C(=O)N[C@@H](CC(=O)O)C(=O)N[C@@H](CCCCN)C(=O)N[C@@H](CCCNC(=N)N)C(=O)N[C@@H](C)C(=O)N[C@@H](C(C)C)C(=O)N3)C(=O)N[C@@H](C)C(=O)N[C@@H](C)C(=O)N[C@@H](Cc1c[nH]cn1)C(=O)N2 [ID4] (HELM PEPTIDE1{A.T.C.D.I.L.S.P.F.K.V.G.H.A.A.C.A.A.H.C.I.A.R.G.K.R.G.G.W.C.D.K.R.A.V.C.N.C.R.K}$PEPTIDE1,PEPTIDE1,3:R3-30:R3|PEPTIDE1,PEPTIDE1,16:R3-36:R3|PEPTIDE1,PEPTIDE1,20:R3-38:R3$$$V2.0; N-terminus and C-terminus assumed; bridges inferred)  32 µg/mL
